{"source": "patent US20250163072A1", "about": "“MACROCYCLIC COMPOUNDS FOR THE TREATMENT OF CANCER” (Hoffmann-La Roche Inc., priority 2021, published 2025)", "key": {"KRAS G12C-BRAF complex": {"molecular_target": "KRAS G12C-BRAF complex (Homo sapiens (Human), UniProt P01116+P62937, G12C)", "sequence (P01116-2 other isoform, or with tags, fused parts or gaps G12C)": "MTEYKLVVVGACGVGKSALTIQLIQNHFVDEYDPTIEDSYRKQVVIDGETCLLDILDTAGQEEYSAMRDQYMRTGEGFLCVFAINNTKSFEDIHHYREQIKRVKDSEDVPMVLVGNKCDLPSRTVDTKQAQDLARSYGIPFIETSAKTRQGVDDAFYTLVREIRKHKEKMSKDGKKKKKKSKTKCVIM", "sequence (P62937 whole entry)": "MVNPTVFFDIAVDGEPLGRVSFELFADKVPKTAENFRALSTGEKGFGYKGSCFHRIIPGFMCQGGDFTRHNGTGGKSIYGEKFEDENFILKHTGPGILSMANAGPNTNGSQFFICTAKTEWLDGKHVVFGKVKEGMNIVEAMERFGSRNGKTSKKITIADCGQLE", "test": "KRAS-BRAF with CYPA (50 nM) interaction assay (TR-FRET), G12C", "assay_type": "binding", "settings": "GMPPNP loaded 6His-KRAS, GST-BRAF RBD", "procedure,_shortened": "(§1)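 Buffer 25 mM HEPES pH 7.4, 100 mM NaCl, 5 mM MgCl2, 10 μM GMPPNP, 0.1% BSA; final 50 nM tagless CYPA, 6.25 nM GMPPNP-loaded 6His-KRAS mutant, 1 nM GST-BRAF RBD. Compounds 16-point 3-fold series from 10 μM, 3 h; anti-6His-XL665/anti-GST-Tb added, 1.5 h; 665/615 nm ratio decrease versus DMSO.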"}, "[1]": {"molecular_target": "KRAS G12D binding to BRAF (Homo sapiens (Human), UniProt P01116+P62937, G12D)", "sequence (P01116-2 other isoform, or with tags, fused parts or gaps G12D)": "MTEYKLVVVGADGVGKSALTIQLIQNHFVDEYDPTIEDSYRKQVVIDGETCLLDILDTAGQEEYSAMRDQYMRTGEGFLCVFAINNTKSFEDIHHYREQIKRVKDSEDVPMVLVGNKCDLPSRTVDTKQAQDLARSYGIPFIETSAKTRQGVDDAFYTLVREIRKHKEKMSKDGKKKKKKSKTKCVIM", "sequence (P62937 whole entry)": "as the sequence (P62937 whole entry) above", "test": "KRAS-BRAF with CYPA (50 nM) interaction assay (TR-FRET), G12D", "settings": "GMPPNP loaded 6His-KRAS, GST-BRAF RBD", "procedure,_shortened": "as §1"}, "[2]": {"molecular_target": "KRAS G12V binding to BRAF (Homo sapiens (Human), UniProt P01116+P62937, G12V)", "sequence (P01116-2 other isoform, or with tags, fused parts or gaps G12V)": "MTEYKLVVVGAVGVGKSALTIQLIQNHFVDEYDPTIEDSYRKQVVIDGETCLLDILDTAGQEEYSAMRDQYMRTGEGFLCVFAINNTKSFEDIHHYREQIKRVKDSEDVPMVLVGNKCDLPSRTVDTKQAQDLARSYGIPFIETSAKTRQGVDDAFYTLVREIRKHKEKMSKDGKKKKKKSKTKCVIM", "sequence (P62937 whole entry)": "as the sequence (P62937 whole entry) above", "test": "KRAS-BRAF with CYPA (50 nM) interaction assay (TR-FRET), G12V", "settings": "GMPPNP loaded 6His-KRAS, GST-BRAF RBD", "procedure,_shortened": "as §1"}, "AGS cells": {"tested_on": "AGS cells", "test": "Cell viability assay, AGS", "assay_type": "cell-based, human", "settings": "Homo sapiens, 72 hours, Cell Counting Kit-8, read-out: G12D IC50", "procedure,_shortened": "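Cells were plated at 5,000 (NCI-H358) or 2,000 (AGS, SW620) per well and incubated overnight. They were then treated with compound in 0.5% DMSO for 72 h. Viability was read with CCK-8 as OD450 minus OD650 after 2 h, and IC50 came from a 4-parameter sigmoidal fit.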"}, "[3]": {"test": "Human hepatocytes stability assay", "assay_type": "in vitro ADME", "procedure,_shortened": "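Compound at 1 μM incubated with cryopreserved suspension hepatocytes (1×10^6 cells/mL) in supplemented Williams' E Medium at 37° C, 5% CO2, with shaking. Reactions quenched with methanol at 2, 10, 20, 40, 60 and 120 min; parent depletion followed by LC-MS/MS.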"}}, "data": [{"smiles": "CO[C@@H](C)c1ncc(N2CCOCC2)cc1-c1c2c3cc(ccc3n1CC(F)(F)F)-c1csc(n1)C[C@H](NC(=O)[C@H](C(C)C)N(C)C(=O)[C@H]1CCN(C(=O)[C@H](F)Cl)C1)C(=O)N1CCC[C@H](N1)C(=O)OCC(C)(C)C2", "note": "(atropisomer, axis not shown; (M)) [Example 25, (3S)-1-[(2R)-2-chloro-2-fluoro-acetyl]-N-[(1S)-1-[[(7S,13S)-(20M)-20-[2-[(1S)-1-methoxyethyl]-5-morpholino-3-pyridyl]-17,17-dimethyl-8,14-dioxo-21-(2,2,2-trifluoroethyl)-15-oxa-4-thia-9,21,27,28-tetrazapentacyclo[17.5.2.12,5.19,13.022,26]octacosa-1(25),2,5(28),19,22(26),23-hexaen-7-yl]carbamoyl]-2-methyl-propyl]-N-methyl-pyrrolidine-3-carboxamide]", "values": [{"measurement": "IC50", "setting": "KRAS G12C-BRAF complex", "result": 32, "unit": "nM"}, {"measurement": "IC50", "setting": "[1]", "result": "> 10", "unit": "µM"}, {"measurement": "IC50", "setting": "[2]", "result": "> 10", "unit": "µM"}, {"measurement": "IC50", "setting": "AGS cells", "result": 94, "unit": "nM"}, {"measurement": "CL_hep (Human)", "setting": "[3]; 1 μM compound, human hepatocytes 1×10^6 cells/mL", "result": 9.8, "unit": "mL/min/kg"}, {"measurement": "Clearance Category", "setting": "[3]; human hepatocytes", "result": "medium (16.24<CL_hep (mL/min/kg)>6.96 is medium clearance)"}]}]}
